In general, IC50 refers to the concentration needed to halve the response being measured.

The subject of assay [1] is Escherichia coli (ATCC25922). Description: MIC, broth microdilution (CLSI), Escherichia coli ATCC25922. For orientation: In broth dilution the organism is exposed to a series of concentrations in liquid medium.
Assay [2] has as its system E. coli RNase P RNA, M1 RNA. Description: Initial inhibition of RNase P activity (normalised cleavage of pATSerUG at maximum compound concentration). The following applies: normalised cleavage (cleavage with compound / without compound). The assay is classed as biochemical.
The subject of assay [3] is Staphylococcus aureus (ATCC25923). Briefly: MIC, broth microdilution (CLSI), Staphylococcus aureus ATCC25923. As to conditions: ATCC25923, read-out: S. aureus ("Clinical") MIC.
Assay [4] concerns Enterococcus faecalis (ATCC29212). Briefly: MIC, broth microdilution (CLSI), Enterococcus faecalis ATCC29212. Format: cell-based. The following applies: read-out: MIC E. faecalis ATCC 29212.
Assay [5] relates to Pseudomonas aeruginosa (ATCC27853). Briefly: microbe, parasite or virus in culture. The assay is classed as cell-based. The following applies: read-out: MIC P. aeruginosa ATCC 27853.
For the next assay, the system named is E. faecium ATCC 700221. Description: MIC, E. faecium ATCC 700221. The assay is classed as cell-based. As to conditions: Enterococcus faecium, ATCC700221; read-out: MIC E. faecium ATCC 700221.
For the next assay, the system named is S. aureus ATCC 29213. Briefly: MIC, S. aureus ATCC 29213 + 50% HS. The assay is classed as cell-based. As to conditions: Staphylococcus aureus, ATCC29213.
Another assay relates to H. influenzae ATCC 49247. Briefly: MIC, H. influenzae ATCC 49247. As to conditions: Haemophilus influenzae, ATCC49247. The assay is classed as cell-based.
The subject of a further assay is K. pneumoniae ATCC 43816. Briefly: MIC, K. pneumoniae ATCC 43816. The assay is classed as cell-based. The following applies: Klebsiella pneumoniae, ATCC43816.
The subject of assay [6] is S. aureus MRSA ATCC 33591. Briefly: MIC, S. aureus MRSA ATCC 33591. The assay is classed as cell-based. As to conditions: Staphylococcus aureus; read-out: MIC S. aureus MRSA ATCC 33591.
In another assay the test system is N. gonorrhoeae 612501. Description: MIC, N. gonorrhoeae 612501. The assay is classed as cell-based. As to conditions: Neisseria gonorrhoeae.
Assay [7] deals with P. aeruginosa NTUH-974 (MDR). Description: MIC, P. aeruginosa NTUH-974 (MDR). Format: cell-based.
The test system of a further assay is A. baumannii ATCC 17978. Briefly: MIC, A. baumannii ATCC 17978. Format: cell-based. The following applies: Acinetobacter baumannii, ATCC17978.
The subject of another assay is E. coli JW5503. Briefly: MIC, E. coli JW5503. Format: cell-based. As to conditions: Escherichia coli, JW5503, read-out: MIC E. coli JW5503.
Assay [8] relates to Staphylococcus aureus subsp. aureus (ATCC29213). Description: MIC, broth microdilution (CLSI), Staphylococcus aureus subsp. aureus ATCC29213. The assay is classed as cell-based.
The next assay concerns S. pneumoniae ATCC 49619. Briefly: MIC, S. pneumoniae ATCC 49619. The following applies: Streptococcus pneumoniae, ATCC49619. Format: cell-based.
For assay [9], the system named is E. coli RNase P RNA, M1 RNA. Description: Inhibition of bacterial RNase P activity, IC50 determination (cleavage of pATSerUG by M1 RNA). Format: biochemical. The following applies: NI = No inhibition.
A further assay concerns M. phlei ATCC 11758. Description: MIC, M. phlei ATCC 11758. The assay is classed as cell-based. As to conditions: Mycolicibacterium phlei, ATCC11758.
For the next assay, the system named is H. pylori ATCC 43504. Description: MIC, H. pylori ATCC 43504. Format: cell-based. As to conditions: Helicobacter pylori, ATCC43504.
For the next assay, the system named is M. fortuitum ATCC 110. Briefly: MIC, M. fortuitum ATCC 110. The following applies: Mycolicibacterium fortuitum, ATCC110. The assay is classed as cell-based.
Assay [10] relates to S. aureus USA300 MRSA BAA 1717. Briefly: MIC, S. aureus USA300 MRSA BAA 1717. Format: cell-based. The following applies: Staphylococcus aureus.
Where [11] appears, read: ATCC25922, read-out: E. coli MIC, Table 15, NI = No inhibition.
The mark [12] stands for this setting: ATCC29213, Table 16, read-out: MIC S. aureus ATCC 29213.

Values after ≈ are worked out from the molar mass of the structure shown. Like-named read-outs stand apart in the source and are kept apart here.

As to `Nc1cc(C(F)(F)F)cc2c1Nc1ccccc1S2` [compound 2, 3-(trifluoromethyl)-10H-phenothiazin-1-amine], the MIC in assay [1] (setting [11]) was more than 100 µg/mL; in [3], 4 µg/mL (≈ 14.2 µM). Also, the results for the “Normalised RNase P cleavage (fraction of control)” value in assay [2] (at 8 μM) and in assay [2] (at 10 μM) were 0.42 and 0.84, respectively.
On to `Nc1cc(C(F)(F)F)cc2c1N(CCCn1ccnc1)c1ccccc1S2` [compound 44, 10-(3-(1H-imidazol-1-yl)propyl)-3-(trifluoromethyl)-10H-phenothiazin-1-amine], for which the MIC in assay [4] was 16 µg/mL (≈ 41 µM); in assay [1] (setting [11]), more than 100 µg/mL; in [1] (ATCC25922, read-out: MIC E. coli ATCC 25922) it was more than 128 µg/mL; in assay [5], more than 128 µg/mL; with E. faecium ATCC 700221, 8 µg/mL (≈ 20.5 µM); with S. aureus ATCC 29213 it was more than 128 µg/mL. Moreover, the MIC was 16 µg/mL (≈ 41 µM) against H. influenzae ATCC 49247; more than 128 µg/mL in the assay with K. pneumoniae ATCC 43816; 64 µg/mL (≈ 164 µM) in assay [6]; 2 µg/mL (≈ 5.12 µM) in the assay on N. gonorrhoeae 612501; more than 128 µg/mL in assay [7] (Pseudomonas aeruginosa, read-out: MIC P. aeruginosa NTUH-974 (MDR)); more than 128 µg/mL in the assay with A. baumannii ATCC 17978. Besides, the MIC in the assay on E. coli JW5503 came to 8 µg/mL (≈ 20.5 µM); in assay [8] (setting [12]), 4 µg/mL (≈ 10.2 µM); against S. pneumoniae ATCC 49619, 16 µg/mL (≈ 41 µM); in assay [3], 2 µg/mL (≈ 5.12 µM). The “Normalised RNase P cleavage (fraction of control)” value in assay [2] (at 8 μM) is listed as 1.06.
Consider `NCCC(=O)Nc1cc(C(F)(F)F)cc2c1Nc1ccccc1S2` [compound 30, 3-amino-N-(3-(trifluoromethyl)-10H-phenothiazin-1-yl)propanamide], for which the IC50 in assay [9] is more than 100 µM. Besides, the figures for the MIC in assay [1] (setting [11]) and in assay [3] were 16 µg/mL (≈ 45.3 µM) and 8 µg/mL (≈ 22.6 µM), respectively. Further, the “Normalised RNase P cleavage (fraction of control)” value in assay [2] (at 8 μM) was 0.49.
Taken in the same sequence, the figures for `C[C@@H](N)CC(=O)Nc1cc(C(F)(F)F)cc2c1Nc1ccccc1S2` [compound 67, (R)-3-amino-N-(3-(trifluoromethyl)-10H-phenothiazin-1-yl)butanamide] were more than 100 µM, 13 µg/mL (≈ 35.4 µM), 13 µg/mL (≈ 35.4 µM) and 0.19.
In the same order, the values of `C=CC(=O)N(CCCN(C)C)c1cc(C(F)(F)F)cc2c1Nc1ccccc1S2` [compound 39, N-(3-(dimethylamino)propyl)-N-(3-(trifluoromethyl)-10H-phenothiazin-1-yl)acrylamide] are 76 µM, more than 100 µg/mL, 27 µg/mL (≈ 64.1 µM) and 0.58.
Consider `CN(C)CCCN1c2ccccc2Sc2cc(C(F)(F)F)cc(N)c21` [compound 42, 10-(3-(dimethylamino)propyl)-3-(trifluoromethyl)-10H-phenothiazin-1-amine], for which the MIC is more than 100 µg/mL in assay [1] (setting [11]) and 47 µg/mL (≈ 128 µM) in assay [3]. The “Normalised RNase P cleavage (fraction of control)” value in [2] (at 8 μM) was 1.02.
For `Cl.Cl.NCCNCCC(=O)Nc1cc(C(F)(F)F)cc2c1Nc1ccc(N3CCCC3)cc1S2` [compound 302, 3-((2-aminoethyl)amino)-N-(7-(pyrrolidin-1-yl)-3-(trifluoromethyl)-10H-phenothiazin-1-yl)propanamide hydrochloride], the MIC in assay [4] is 8 µg/mL; against M. phlei ATCC 11758, 16 µg/mL; in [1] (setting [11]), 128 µg/mL; in assay [1] (ATCC25922, read-out: MIC E. coli ATCC 25922, Table 16), 16 µg/mL; in assay [5], 32 µg/mL; in the assay with E. faecium ATCC 700221, 4 µg/mL. In addition, the MIC in the assay with S. aureus ATCC 29213 turned out to be 64 µg/mL; against H. influenzae ATCC 49247, 16 µg/mL; in the assay on K. pneumoniae ATCC 43816, 16 µg/mL; in [6] it was 8 µg/mL; in the assay on N. gonorrhoeae 612501, 8 µg/mL; in [7] (Pseudomonas aeruginosa; read-out: MIC P. aeruginosa NTUH-974 (MDR)), 32 µg/mL. The MIC against A. baumannii ATCC 17978 came to 32 µg/mL; in the assay with E. coli JW5503, 16 µg/mL; in assay [8] (ATCC29213, Table 15, read-out: S. aureus ("wound") (MIC)) it was 32 µg/mL; in [8] (setting [12]), 8 µg/mL; against S. pneumoniae ATCC 49619 it was 64 µg/mL; against H. pylori ATCC 43504, 32 µg/mL. In addition, the MIC (with M. fortuitum ATCC 110; in [10]) was 8 µg/mL each time. In assay [9], this compound had an IC50 of 3.6 µM.

The values above are taken from US11130741B2 (Bioimics AB, priority 2016, dated 2021).
